Measurements published in ChEMBL document CHEMBL5150016, “Inhibiting Sodium Taurocholate Cotransporting Polypeptide in HBV-Related Diseases: From Biological Function to Therapeutic Potential” (J Med Chem, 2022).
Converted amounts (≈) assume the structure as drawn.

Columns and labels:
[1] = target: T1, Hepatic sodium/bile acid cotransporter (Homo sapiens, UniProt Q14973); test: Inhibition of HBV subgenotype D3 [3H]-myr-preS1 (2 to 48 residues) peptide binding to human NTCP in HEK293 cells preincubated for 5 mins followed by substrate addition and measured after 10 mins using by microplate scintillation counter analysis; assay type: cell-based
T1 sequence (Q14973 whole entry): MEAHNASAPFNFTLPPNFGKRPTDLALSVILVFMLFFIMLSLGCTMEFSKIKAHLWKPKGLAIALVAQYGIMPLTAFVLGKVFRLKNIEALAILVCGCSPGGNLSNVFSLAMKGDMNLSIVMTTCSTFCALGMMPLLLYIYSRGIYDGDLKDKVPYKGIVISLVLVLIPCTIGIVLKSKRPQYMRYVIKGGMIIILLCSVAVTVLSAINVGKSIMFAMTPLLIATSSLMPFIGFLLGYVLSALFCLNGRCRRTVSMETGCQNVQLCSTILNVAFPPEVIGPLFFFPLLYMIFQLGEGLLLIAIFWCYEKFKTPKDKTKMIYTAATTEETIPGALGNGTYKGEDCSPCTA

[2] = tested on: Hepatitis B virus; test: Antiviral activity against HBV infected human HepG2-hNTCP cells assessed as reduction of HBV DNA level preincubated for 3 hrs followed by viral infection for 16 hrs further compound washout and measured 6 days post infection by qPCR analysis; assay type: functional, organism-based
[3] = tested on: Hepatitis B virus; test: Antiviral activity against HBV infected HepG2 2.2.15 cells assessed as reduction in HBsAg level at 50 microg/ml for 48 hrs by ELISA; assay type: functional, organism-based; parameters: Activity: scale not given: the % may be the effect or the level left; conditions: for Activity: dose 50 µg/ml, time 48 hrs
[4] = tested on: Hepatitis B virus; test: Antiviral activity against HBV infected HepG2 2.2.15 cells assessed as reduction in HBeAg level at 50 microg/ml for 48 hrs by ELISA; assay type: functional; parameters: scale not given: the % may be the effect or the level left; conditions: dose 50 µg/ml
[5] = tested on: Hepatitis B virus; test: Antiviral activity against HBV infected in human HepG2-hNTCP cells assessed as reduction in intracellular HBV RNA incubated for 16 hrs followed by compound washout and measured after 6 days post infection by ELISA; assay type: functional, organism-based
[6] = tested on: Hepatitis B virus; test: Antiviral activity against HBV infected HepG2 cells assessed as reduction in HBsAg level; assay type: functional, organism-based; conditions: HepG2 2.2.15
[7] = tested on: Hepatitis B virus; test: Antiviral activity against HBV infected HepG2 cells assessed as reduction in HBeAg level; assay type: functional, organism-based; conditions: HepG2 2.2.15
[8] = target: T1, Hepatic sodium/bile acid cotransporter; test: Inhibition of human NTCP mediated TCA uptake in HepG2-hNTCP cells incubated for 15 mins using [3H] taurocholic acid as substrate by liquid scintillation counter analysis; assay type: cell-based
[9] = target: T1, Hepatic sodium/bile acid cotransporter; test: Inhibition of TAMRA-labeled preS1-peptide binding to human NTCP in HepG2-hNTCP cells incubated for 30 mins by […]; assay type: cell-based
[10] = tested on: Hepatitis delta virus; test: Antiviral activity against hepatitis D virus infected in human HepG2-hNTCP cells assessed as reduction in viral replication preincubated for 5 mins followed by viral infection measured after 6 hrs post infection by RT-qPCR analysis; assay type: functional, organism-based
[11] = tested on: HepG2; test: Antiproliferative activity against human HEpG2 cells; assay type: functional, cell-based
[12] = tested on: Hepatitis B virus; test: Antiviral activity against HBV infected HepG2 2.2.15 cells assessed as reduction in HBsAg level and measured after 9 days by ELISA; assay type: functional, organism-based; conditions: HepG2 2.2.15, 216 h
[13] = tested on: Hepatitis B virus; test: Antiviral activity against HBV infected HepG2 2.2.15 cells assessed as reduction in HBeAg level and measured after 9 days by ELISA; assay type: functional, organism-based; conditions: HepG2 2.2.15, 216 h
[14] = target: T1, Hepatic sodium/bile acid cotransporter; test: Inhibition of preS1-peptide binding to human HA-tagged NTCP in U2OS expresseing NTCP in incubated for 24 hrs using Myrcludex B as substrate by competitive binding assay; assay type: cell-based
[15] = target: T1, Hepatic sodium/bile acid cotransporter; test: Inhibition of human NTCP mediated TCA uptake in U2OS expresseing HA-tagged NTCP cells preincubated for 10 mins followed by substrate addition and measured after 2 mins using [3H]-taurocholate as substrate by liquid scintillation counter analysis; assay type: cell-based
[16] = tested on: Hepatitis B virus; test: Antiviral activity against HBV infected in human HepG2-hNTCP cells assessed as reduction in HBsAg level preincubated for 2 hrs followed by viral infection for 16 hrs further compound washout and measured after 12 days post infection by ELISA; assay type: functional, organism-based
[17] = tested on: Hepatitis B virus; test: Antiviral activity against HBV infected in human DMSO differentiated imHC cells assessed as reduction in intracellular HBV DNA at 30 uM preincubated for 2 hrs followed by viral infection for 18 hrs followed by compound washout and further treated with fresh compound for 24 hrs and measured on day 7 post infection by real-time qPCR analysis; assay type: functional; parameters: scale not given: the % may be the effect or the level left; conditions: time 44 hrs
[18] = target: T1, Hepatic sodium/bile acid cotransporter; test: Binding affinity to human NTCP assessed as dissociation constant by isothermal titration calorimetry
[19] = tested on: Hepatitis B virus; test: Antiviral activity against HBV infected in human DMSO differentiated imHC cells assessed as reduction in viral load at 30 uM preincubated for 2 hrs followed by viral infection for 18 hrs followed by compound washout and further treated with fresh compound for 24 hrs and measured on day 7 post infection by real-time qPCR analysis; assay type: functional; parameters: scale not given: the % may be the effect or the level left; conditions: time 44 hrs
[20] = tested on: Hepatitis B virus; test: Antiviral activity against HBV infected human DMSO differentiated HuS-E/2 cells assessed as reduction of HBV core protein level incubated for 20 hrs by Western blot analysis; assay type: functional, organism-based; conditions: HuS-E/2, 20 h
[21] = tested on: Hepatitis B virus; test: Antiviral activity against HBV infected human DMSO differentiated HuS-E/2 cells overexpressing NTCP assessed as assessed as inhibition of viral entry by measuring HBV mRNA level by qPCR analysis; assay type: functional, organism-based
[22] = tested on: Hepatitis B virus; test: Antiviral activity against HBV infected human DMSO differentiated HuS-E/2 cells overexpressing NTCP assessed as assessed as inhibition of viral entry by measuring HBV mRNA level at 20 uM by qPCR analysis relative to control; assay type: functional
[23] = tested on: Hepatitis delta virus; test: Antiviral activity against hepatitis D virus infected in human Huh-7 cells overexpressing NTCP assessed as reduction in intracellular HDV RNA for 20 hrs followed by viral infection further compound washout and measured after 6 days post infection by RT-qPCR analysis; assay type: functional, organism-based
[24] = target: T1, Hepatic sodium/bile acid cotransporter; test: Binding affinity to NTCP (unknown origin)

C=C(C)[C@@H]1CC[C@]2(/C=N/O)CC[C@]3(C)[C@H](CC[C@@H]4[C@@]5(C)CC[C@H](O)C(C)(C)[C@@H]5CC[C@]43C)[C@@H]12
IC50 [1]: 11 µM

Cc1cc(OCCCS(C)(=O)=O)cc(C)c1-c1cccc(COc2ccc3c(c2)OC[C@H]3CC(=O)O)c1
IC50 [2]: 30 µM

C[C@H]1O[C@H](Oc2c(-c3cc(O)c(O)c(O)c3)oc3cc(O)cc(O)c3c2=O)[C@@H](O)[C@@H](O)[C@@H]1O
Activity [3]: 44%
Activity [4]: 35%

O=C1N=C(O)S/C1=C\c1ccc(OCc2ccc(-c3ccccc3)cc2)cc1
IC50 [5]: 3.8 µM

Cc1ccc(C(=O)NCC(=O)N/N=C/c2ccccc2OCc2ccccc2Cl)cc1
IC50 [6]: 3.95 ng/mL (≈ 0.00906 µM)
IC50 [7]: 15 ng/mL (≈ 0.0344 µM)

C=C(C)[C@@H]1CC[C@]2(CO)CC[C@]3(C)[C@H](CC[C@@H]4[C@@]5(C)CC[C@H](OC(=O)/C=C/c6ccc(O)c(O)c6)C(C)(C)[C@@H]5CC[C@]43C)[C@@H]12
IC50 [1]: 6 µM

CCCCCCc1c(C)c2ccc(OCC(=O)NC(Cc3ccccc3)C(=O)O)cc2oc1=O (stereo not given)
IC50 [8]: 12.5 µM
IC50 [9]: 145 µM

Cc1c(Cc2ccccc2)c(=O)oc2cc(OCC(=O)NC(CSCc3ccccc3)C(=O)O)ccc12 (stereo not given)
IC50 [8]: 13.3 µM
IC50 [9]: 150 µM

COc1ccc([C@H](O)[C@H](c2ccccn2)[C@@H](Nc2ccccn2)c2ccccc2)cc1
IC50 [1]: 16.5 µM
IC50 [10]: 70 µM

O=C1NC(=O)/C(=C/c2ccc(-c3ccc(-c4cccc5ccccc45)cc3)cc2)S1
IC50 [5]: 1.7 µM

O=Cc1cccc([C@@H]([C@H](Nc2ccccn2)c2ccccc2)[C@@H](O)c2ccccc2)n1
IC50 [1]: 16 µM
IC50 [10]: 15 µM

O[C@H](c1ccc([C@@H](O)[C@@H](c2ccccn2)[C@H](Nc2ccccn2)c2ccccc2)cc1)[C@@H](c1ccccn1)[C@H](Nc1ccccn1)c1ccccc1
IC50 [1]: 6.5 µM
IC50 [10]: 70 µM

CCCCCCc1cc2ccc(OCC(=O)NC(CCSC)C(=O)O)cc2oc1=O (stereo not given)
IC50 [8]: 17.8 µM
IC50 [9]: 238 µM

CC(C)(C)OC(=O)N1CCN(CC(=O)NCc2cccc(CNS(=O)(=O)c3ccc(C(F)(F)F)cc3)c2)CC1
IC50 [11]: 7.36 µM
IC50 [6]: 3.24 ng/mL (≈ 0.00568 µM)
IC50 [7]: 7.64 ng/mL (≈ 0.0134 µM)

C=C(CO)[C@@H]1CC[C@]2(COC(C)=O)CC[C@]3(C)[C@H](CC[C@@H]4[C@@]5(C)CC[C@H](OC(C)=O)C(C)(C)[C@@H]5CC[C@]43C)[C@@H]12
IC50 [1]: 8 µM

O=C1NC(=O)C(Cc2ccc(OCc3ccc(-c4ccccc4)cc3)cc2)S1 (stereo not given)
IC50 [5]: 5.2 µM

Cc1c(OCC(=O)NC(CSCc2ccccc2)C(=O)O)ccc2c3c(c(=O)oc12)CCCC3 (stereo not given)
IC50 [8]: 16.2 µM
IC50 [9]: 123 µM

CN1CCCC(n2nc(Cc3ccc(Cl)cc3)c3ccccc3c2=O)CC1 (stereo not given) [AZELASTINE]
IC50 [12]: 7.5 µM
IC50 [13]: 3.7 µM

C=C(C)[C@@H]1CC[C@]2(COC(C)=O)CC[C@]3(C)[C@H](CC[C@@H]4[C@@]5(C)CC[C@H](OC(C)=O)C(C)(C)[C@@H]5CC[C@]43C)[C@@H]12 [BETULIN DIACETATE]
IC50 [1]: 199 µM

COc1cc(-c2ccc(/N=N/c3ccc4c(S(=O)(=O)O)cc(S(=O)(=O)O)c(N)c4c3O)c(OC)c2)ccc1/N=N/c1ccc2c(S(=O)(=O)O)cc(S(=O)(=O)O)c(N)c2c1O [CHICAGO SKY BLUE]
IC50 [14]: > 1 µM
IC50 [15]: 7.1 µM

CC1(COc2ccc(CC3SC(=O)NC3=O)cc2)CCCCC1 (stereo not given) [CIGLITAZONE]
IC50 [16]: 5 µM

COc1cc(/C=C/C(=O)CC(=O)/C=C/c2ccc(O)c(OC)c2)ccc1O [CURCUMIN]
Activity [17]: 67%
Kd [18]: 64.3 µM
Activity [19]: 55%

O=C(O[C@@H]1Cc2c(O)cc(O)cc2O[C@@H]1c1cc(O)c(O)c(O)c1)c1cc(O)c(O)c(O)c1 [EPIGALOCATECHIN GALLATE]
IC50 [20]: 10 µM

CC(C)[C@@H](C)/C=C/[C@@H](C)[C@H]1CC[C@@H]2[C@]1(C)CC[C@H]1[C@]23C=C[C@]2(C[C@@H](O)CC[C@]12C)OO3 [ERGOSTEROL PEROXIDE]
EC50 [21]: 9.64 µM
inhibition at 20 µM [22]: 75%

O=C1[C@H](CC[C@H](O)c2ccc(F)cc2)[C@@H](c2ccc(O)cc2)N1c1ccc(F)cc1 [EZETIMIBE]
EC50 [23]: 10.4 µM
Ki [24]: 25 µM

CCCCC1=NC2(CCCC2)C(=O)N1Cc1ccc(-c2ccccc2-c2nnn[nH]2)cc1 [IRBESARTAN]
EC50 [23]: 9.4 µM

O=c1c(O)c(-c2ccc(O)c(O)c2)oc2cc(O)cc(O)c12 [QUERCETIN]
Activity [3]: 60%
Activity [4]: 62%

CC(C)c1nc(CN(C)C(=O)N[C@H](C(=O)N[C@@H](Cc2ccccc2)C[C@H](O)[C@H](Cc2ccccc2)NC(=O)OCc2cncs2)C(C)C)cs1 [RITONAVIR]
EC50 [23]: 9.1 µM

CN(CCOc1ccc(CC2SC(=O)NC2=O)cc1)c1ccccn1 (stereo not given) [ROSIGLITAZONE]
IC50 ([3]; Hepatitis B virus, HepG2 2.2.15, 48 h): 5.1 µM

O=C(O)c1cc(/N=N/c2ccc(S(=O)(=O)Nc3ccccn3)cc2)ccc1O [SULFASALAZINE]
IC50 [14]: > 1 µM

Cc1c(C)c2c(c(C)c1O)CCC(C)(COc1ccc(CC3SC(=O)NC3=O)cc1)O2 (stereo not given) [TROGLITAZONE]
IC50 [16]: 10 µM

COc1cc(C(=O)NS(=O)(=O)c2ccccc2C)ccc1Cc1cn(C)c2ccc(NC(=O)OC3CCCC3)cc12 [ZAFIRLUKAST]
IC50 [14]: > 1 µM
